Test results as given in US9751837B2, “Kinase inhibitors” (RESPIVERT LIMITED, priority 2014, dated 2017).
Converted amounts (≈) assume the structure as drawn.

What was measured:
[1] = tested on: Jurkat cells; assay: Cell cytotoxicity assay (r); assay type: cell-based, human; settings: 24 hours
Procedure: 1×10^5 Jurkat cells (immortalised human T lymphocytes) are added to the appropriate number of wells of a 96 well plate in 100 μL of media (RPMI supplemented with 10% foetal bovine serum). 1 μL of DMSO control (final concentration 1.0% v/v) or test compound (final concentration 20, 5 or 1 μg/mL) is added to the wells and incubated at 37° C., 5% CO2. After 24 hours, the plate is centrifuged at 1200 rpm for 3 minutes and the supernatant discarded. Cells are then resuspended in 150 μL (final concentration 7.5 μg/mL) of propidium iodide (PI) in PBS and incubated at 37° C., 5% CO2 for 15 minutes. After 15 minutes, cells are analysed by flow cytometry (BD accuri) using the FL3 window. The % viability is calculated as the % of cells that are PI negative in the test wells normalised to the DMSO control.

[2] = Solubility in fasted-state simulated colonic fluid (FaSSCoF) at pH 6.5; assay type: physicochemical; settings: 25 °C, pH 6.5, fassgf or other biorelevant, thermodynamic from solid
Procedure: The solubilities of compounds of the invention in FaSSCoF at pH 6.5 are determined using a modification of a previously-reported procedure (Vertzoni, M., et al. Pharm. Res. 2010, 27, 2187-2196). In place of the bile salt extract employed in the original procedure (which extract is no longer available), the modified procedure uses a mixture of sodium taurochlorate (0.15 g), glycocholic acid (0.15 g), ursodeoxycholic acid (0.05 g), cholic acid (0.05 g), and glycodeoxycholic acid (0.05 g). These five bile acids are ground together with a mortar and pestle to produce a fine white powder that is incorporated into the FaSSCoF, as outlined below.
Tris(hydroxymethyl)aminomethane (Tris; 0.275 g) and maleic acid (0.44 g) are dissolved in water (35 mL) to give a solution whose pH is adjusted to 6.5 by treatment with 0.5M NaOH (ca. 12 mL). The solution is then made up to 50 mL with water. A portion of this Tris/maleate buffer solution (ca. 25 mL) is added to a 0.5 L round-bottomed flask, before being treated with 0.00565 g of the bile acid mixture described above. Solutions of phosphatidylcholine (0.0111 g) in DCM (0.15 mL) and palmitic acid (0.0013 g) in DCM (0.15 mL) are added, then the organic solvent is evaporated off under reduced pressure at 40° C. until a clear solution, with no perceptible DCM odour, is achieved. The volume of the evaporated solution is adjusted to 50 mL by addition of the remainder of Tris/maleate buffer, then BSA (0.115 g) is added, before being dissolved by gentle agitation.
Test compounds are suspended in the pH 6.5 FaSSCoF medium to give a maximum final concentration of 2-10 mg/mL. The suspensions are equilibrated at 25° C. for 24 h, before being filtered through a glass fibre C filter. The filtrates are then diluted as appropriate for injection and quantification by HPLC with reference to a standard. Different volumes of the standard, diluted and undiluted sample solutions are injected and the solubilities are calculated using the peak areas determined by integration of the peak found at the same retention time as the principal peak in the standard injection.

[3] = pH 6.5 FaSSCoF Solubility (mg/mL) Run 1
[4] = pH 6.5 FaSSCoF Solubility (mg/mL) Run 2

| Structure (SMILES) | % Viability at 20 μg/mL [1] [%] | solubility thermodynamic at 24 h [2, 3] [µg/mL] | solubility thermodynamic at 24 h [2, 4] [µg/mL] | solubility thermodynamic at 24 h ([2]; pH 6.5 FaSSCoF Solubility (mg/mL) Run 3) [µg/mL] | solubility thermodynamic at 24 h ([2]; pH 6.5 FaSSCoF Solubility (mg/mL) Run 4) [µg/mL] | % Viability at 5 μg/mL [1] [%] | % Viability at 1 μg/mL [1] [%] |
| --- | --- | --- | --- | --- | --- | --- | --- |
| COc1cc(Nc2nccc(Oc3ccc(NC(=O)Nc4cc(C(C)(C)C)cc(NS(C)(=O)=O)c4OC)c4ccccc34)n2)ccc1C(=O)NCCCN1CCOCC1 [17(ao), 4-((4-((4-(3-(5-(tert-Butyl)-2-methoxy-3-(methylsulfonamido)phenyl)ureido)naphthalen-1-yl)oxy)pyrimidin-2-yl)amino)-2-methoxy-N-(3-morpholinopropyl)benzamide] | 1.6 | 9 (≈ 10.9 µM) | 9 (≈ 10.9 µM) | – | – | – | – |
| COc1cc(Nc2cc(Oc3ccc(NC(=O)Nc4cc(C(C)(C)C)cc(NS(C)(=O)=O)c4OC)c4ccccc34)ccn2)cc(OC)c1C(=O)NCCN(C)C [Example 39, 4-((4-((4-(3-(5-(tert-Butyl)-2-methoxy-3-(methylsulfonamido)phenyl)ureido)naphthalen-1-yl)oxy)pyridin-2-yl)amino)-N-(2-(dimethylamino)ethyl)-2,6-dimethoxybenzamide] | 1.5 | 222 (≈ 278 µM) | 247 (≈ 309 µM) | 73 (≈ 91.3 µM) | 97 (≈ 121 µM) | – | – |
| COc1cc(Nc2cc(Oc3ccc(NC(=O)Nc4cc(C(C)(C)C)cc(NS(C)(=O)=O)c4OC)c4ccccc34)ccn2)ccc1C(=O)NCCC1(O)CCN(C)CC1 [17(bg), 4-((4-((4-(3-(5-(tert-Butyl)-2-methoxy-3-(methylsulfonamido)phenyl)ureido)naphthalen-1-yl)oxy)pyridin-2-yl)amino)-N-(2-(4-hydroxy-1-methylpiperidin-4-yl)ethyl)-2-methoxy benzamide] | 0.3 | 16 (≈ 19 µM) | 19 (≈ 22.6 µM) | – | – | 60.0 | – |
| COc1cc(Nc2nccc(Oc3ccc(NC(=O)Nc4cc(C(C)(C)C)cc(NS(C)(=O)=O)c4OC)c4ccccc34)n2)ccc1C(=O)NCCCN1CCN(C)CC1 [17(ap), 4-((4-((4-(3-(5-(tert-Butyl)-2-methoxy-3-(methylsulfonamido)phenyl)ureido)naphthalen-1-yl)oxy)pyrimidin-2-yl)amino)-2-methoxy-N-(3-(4-methylpiperazin-1-yl)propyl)benzamide] | 0.6 | < 1 | < 1 | – | – | – | – |
| COc1cc(Nc2cc(Oc3ccc(NC(=O)Nc4cc(C(C)(C)C)cc(NS(C)(=O)=O)c4OC)c4ccccc34)ccn2)ccc1C(=O)NCCN1CCN(C(=O)CC[C@H](N)C(=O)O)CC1 [17(cl), (S)-2-Amino-5-(4-(2-(4-((4-((4-(3-(5-(tert-butyl)-2-methoxy-3-(methylsulfonamido)-phenyl)ureido)naphthalen-1-yl)oxy)pyridin-2-yl)amino)-2-methoxybenzamido)ethyl)piperazin-1-yl)-5-oxopentanoic acid] | – | 9 (≈ 9.57 µM) | 6 (≈ 6.38 µM) | – | – | 94.0 | – |
| COc1cc(Nc2cc(Oc3ccc(NC(=O)Nc4cc(C(C)(C)C)cc(NS(C)(=O)=O)c4OC)c4ccccc34)ccn2)ccc1C(=O)NCC(CO)(CO)CO [Example 38, 4-((4-((4-(3-(5-(tert-Butyl)-2-methoxy-3-(methylsulfonamido)phenyl)ureido)naphthalen-1-yl)oxy)pyridin-2-yl)amino)-N-(3-hydroxy-2,2-bis(hydroxymethyl)propyl)-2-methoxybenzamide] | 6.0 | 14 (≈ 17.1 µM) | 12 (≈ 14.7 µM) | – | – | – | 90.0 |
| COc1cc(Nc2cc(Oc3ccc(NC(=O)Nc4cc(C(C)(C)C)cc(NS(C)(=O)=O)c4OC)c4ccccc34)ccn2)ccc1C(=O)NCCOCCO [17(bm), 4-((4-((4-(3-(5-(tert-Butyl)-2-methoxy-3-(methylsulfonamido)phenyl)ureido)naphthalen-1-yl)oxy)pyridin-2-yl)amino)-N-(2-(2-hydroxyethoxy)ethyl)-2-methoxybenzamide] | 0.5 | 5 (≈ 6.35 µM) | 5 (≈ 6.35 µM) | – | – | 0.2 | – |
| COc1cc(Nc2cc(Oc3ccc(NC(=O)Nc4cc(C(C)(C)C)cc(NS(C)(=O)=O)c4OC)c4ccccc34)ccn2)ccc1-n1ccccc1=O [Example 31, N-(5-(tert-Butyl)-2-methoxy-3-(3-(4-((2-((3-methoxy-4-(2-oxopyridin-1(2H)-yl)phenyl)amino)-pyridin-4-yl)oxy)naphthalen-1-yl)ureido)phenyl)methanesulfonamide] | 99.0 | 3 (≈ 4.01 µM) | 3 (≈ 4.01 µM) | – | – | – | – |
| COc1cc(Nc2cc(Oc3ccc(NC(=O)Nc4cc(C(C)(C)C)cc(NS(C)(=O)=O)c4OC)c4ccccc34)ccn2)ccc1C(=O)N(C)CCN1CCN(C)CC1 [17(bh), 4-((4-((4-(3-(5-(tert-Butyl)-2-methoxy-3-(methylsulfonamido)phenyl)ureido)naphthalen-1-yl)oxy)pyridin-2-yl)amino)-2-methoxy-N-methyl-N-(2-(4-methylpiperazin-1-yl)ethyl)benzamide] | 0.6 | 16 (≈ 19.1 µM) | 19 (≈ 22.6 µM) | – | – | – | – |
| COc1cc(Nc2cc(Oc3ccc(NC(=O)Nc4cc(C(C)(C)C)cc(NS(C)(=O)=O)c4OC)c4ccccc34)ccn2)cc(OC)c1C(=O)NCC1CCN(C)CC1 [17(ca), 4-((4-((4-(3-(5-(tert-Butyl)-2-methoxy-3-(methylsulfonamido)phenyl)ureido)naphthalen-1-yl)oxy)pyridin-2-yl)amino)-2,6-dimethoxy-N-((1-methylpiperidin-4-yl)methyl)benzamide] | – | 2 (≈ 2.38 µM) | 2 (≈ 2.38 µM) | – | – | 94.0 | – |
| COc1cc(Nc2cc(Oc3ccc(NC(=O)Nc4cc(C(C)(C)C)cc(NS(C)(=O)=O)c4OC)c4ccccc34)ccn2)cc(OC)c1C(=O)NCCCN1CCN(C)CC1 [17(au), 4-((4-((4-(3-(5-(tert-Butyl)-2-methoxy-3-(methylsulfonamido)phenyl)ureido)naphthalen-1-yl)oxy)pyridin-2-yl)amino)-2,6-dimethoxy-N-(3-(4-methylpiperazin-1-yl)propyl)benzamide] | – | 32 (≈ 36.8 µM) | 23 (≈ 26.5 µM) | – | – | – | 94.0 |
| COc1cc(Nc2cc(Oc3ccc(NC(=O)Nc4cc(C(C)(C)C)cc(NS(C)(=O)=O)c4OC)c4ccccc34)ccn2)ccc1S(=O)(=O)CC(CO)(CO)CO [Example 45, N-(5-(tert-Butyl)-3-(3-(4-((2-((4-((3-hydroxy-2,2-bis(hydroxymethyl)propyl)sulfonyl)-3-methoxyphenyl)amino)pyridin-4-yl)oxy)naphthalen-1-yl)ureido)-2-methoxyphenyl)-methanesulfonamide] | 9.8 | 5 (≈ 5.97 µM) | 5 (≈ 5.97 µM) | – | – | – | – |
| COc1c(NC(=O)Nc2ccc(Oc3ccnc(Nc4ccc(C(=O)NCCCN5CCOCC5)c(O)c4)c3)c3ccccc23)cc(C(C)(C)C)cc1NS(C)(=O)=O [Example 29, 4-((4-((4-(3-(5-(tert-Butyl)-2-methoxy-3-(methylsulfonamido)phenyl)ureido)naphthalen-1-yl)oxy)pyridin-2-yl)amino)-2-hydroxy-N-(3-morpholinopropyl)benzamide] | 2.0 | 11 (≈ 13.5 µM) | 9 (≈ 11.1 µM) | – | – | – | – |
| COc1cc(Nc2cc(Oc3ccc(NC(=O)Nc4cc(NS(C)(=O)=O)cc(C(C)(C)C)c4)c4ccccc34)ccn2)ccc1C(=O)NCCN1CCN(C)CC1 [17(bo), 4-((4-((4-(3-(3-(tert-Butyl)-5-(methylsulfonamido)phenyl)ureido)naphthalen-1-yl)oxy)pyridin-2-yl)amino)-2-methoxy-N-(2-(4-methylpiperazin-1-yl)ethyl)benzamide] | 14.0 | 35 (≈ 44 µM) | 33 (≈ 41.5 µM) | – | – | – | – |
